{
  "source": "patent EP3632916B1",
  "about": "“MORPHINAN COMPOUNDS” (Concert Pharmaceuticals Inc., priority 2007, dated 2008)",
  "biological_target": "Human CYP2D6 + P450 Reductase SUPERSOMES (Homo sapiens, UniProt P10635)",
  "sequence (P10635 whole entry)": "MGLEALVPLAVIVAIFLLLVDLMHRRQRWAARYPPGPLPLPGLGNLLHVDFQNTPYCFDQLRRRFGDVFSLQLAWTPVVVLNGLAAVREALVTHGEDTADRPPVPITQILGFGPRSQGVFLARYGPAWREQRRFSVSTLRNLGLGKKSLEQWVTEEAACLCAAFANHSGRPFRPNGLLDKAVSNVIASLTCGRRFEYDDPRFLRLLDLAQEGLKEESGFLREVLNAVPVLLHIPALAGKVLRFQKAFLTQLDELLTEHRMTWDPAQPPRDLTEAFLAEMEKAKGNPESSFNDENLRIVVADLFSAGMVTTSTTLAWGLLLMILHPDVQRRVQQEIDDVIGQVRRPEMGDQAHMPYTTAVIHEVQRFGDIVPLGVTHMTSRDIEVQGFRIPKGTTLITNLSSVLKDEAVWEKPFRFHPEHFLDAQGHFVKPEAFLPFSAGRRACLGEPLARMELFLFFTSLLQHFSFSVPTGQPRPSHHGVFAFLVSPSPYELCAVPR",
  "settings": "0.1 µM, 2D6 Supersomes",
  "experimental": "Plates were then spun in the centrifuge for 10 minutes at 3000 rpm.",
  "data": [
    {"smiles": "COc1ccc2c(c1)[C@]13CCCC[C@@H]1[C@H](C2)N(C)CC3", "note": "[dextromethorphan, (+)-3-methoxy-17-methyl-(9α,13α,14α)-morphinan]", "values": [
      {"measurement": "intact compound at the 20 minute time point", "result": "no intact dextromethorphan could be detected"}
    ]}
  ]
}
